Measurements reported in patent US4650753A, “Novel substrates for use in measuring the concentration of kallikrein in urine” (Nitto Boseki Co., Ltd., priority 1984, dated 1987).

Assays:
Plasmin (PL) = molecular target: T1, Plasmin (PL) (Homo sapiens, UniProt P00747); experiment: Substrate specificity test: hydrolysis by plasmin, colorimetric; assay type: biochemical; settings: for Absorbance (O.D.), PL: 700 nm (CHA substrate, pentacyanoamineferroate), S0 = 0.4 m mole, pH 7.8, 37° C., 5 minutes, 0.25 CU/ml enzyme
T1 construct: purchased The Green Cross Corporation Lot No. PL-35
T1 sequence (P00747 581-810 limits assumed): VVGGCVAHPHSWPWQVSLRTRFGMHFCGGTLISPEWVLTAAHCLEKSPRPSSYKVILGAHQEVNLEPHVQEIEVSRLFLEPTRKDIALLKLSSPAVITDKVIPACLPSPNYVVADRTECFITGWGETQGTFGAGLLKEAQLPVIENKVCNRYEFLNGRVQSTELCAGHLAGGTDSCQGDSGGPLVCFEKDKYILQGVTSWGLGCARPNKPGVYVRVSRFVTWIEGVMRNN
T1 sequence (P00747 97-580 partner limits assumed): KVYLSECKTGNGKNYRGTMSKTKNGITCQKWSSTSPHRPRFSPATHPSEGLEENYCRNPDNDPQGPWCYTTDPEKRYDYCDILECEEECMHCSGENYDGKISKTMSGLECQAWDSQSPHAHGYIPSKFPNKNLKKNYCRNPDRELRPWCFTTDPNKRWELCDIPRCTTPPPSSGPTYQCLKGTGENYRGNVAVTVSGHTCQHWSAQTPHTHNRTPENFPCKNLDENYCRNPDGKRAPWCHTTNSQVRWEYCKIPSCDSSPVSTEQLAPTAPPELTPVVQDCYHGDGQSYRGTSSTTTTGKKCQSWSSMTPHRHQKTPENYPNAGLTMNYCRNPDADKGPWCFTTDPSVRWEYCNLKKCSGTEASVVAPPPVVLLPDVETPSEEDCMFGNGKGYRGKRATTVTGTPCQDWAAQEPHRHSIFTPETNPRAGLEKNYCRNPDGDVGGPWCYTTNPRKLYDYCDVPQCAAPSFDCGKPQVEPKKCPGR
Method: (§1) The specificities of newly synthesized substrates were tested by reacting each of them with various enzymes as follows.
(§2) (1) Substrate solution: 2 m moles/liter.H2 O
(§3) (2) Buffer solutions: 50 m moles of tris(hydroxymethyl)aminomethane/hydrochloric acid buffer solution and 150 m moles/liter of NaCl solution were used, and the reaction pH were specified with respect to the enzymes as follows. […]
(§4) (4) Reaction stopper (PNA): 10%-acetic acid
(§5) (5) Chromogenic reagent (CHA): Pentacyanoamineferroate
(§6) (6) Method of determination:
(§7) 0.3 Milliliter of the buffer solution and 0.1 ml of the enzyme reagent were taken in a hard glass test tube of which surface being treated with silicone, or a plastic test tube and preheated in a thermostat at 37° C. for 5 minutes so as to conduct the enzymatic reaction. Precisely 5 minutes after the reaction was started, 2.0 ml of reaction stopper solution or reaction terminating chromogenic reagent was added to terminate the enzymatic reaction. After the enzymatic reaction was completed, the reaction mixture was allowed to stand at 37° C. for 10 minutes, and then the absorbance at 405 nm or 700 nm was measured.

Urokinase (UK) = molecular target: T2, Urokinase (UK) (Homo sapiens, UniProt P00749); experiment: Substrate specificity test: hydrolysis by urokinase, colorimetric; assay type: biochemical; settings: for Absorbance (O.D.), UK: 700 nm (CHA substrate, pentacyanoamineferroate), S0 = 0.4 m mole, pH 8.2, 37° C., 5 minutes, 1000 U/ml enzyme
T2 construct: purchased Mochida Pharmaceutical Co., Ltd. Lot No. 2C239
Method: as §1, §2, §3, §4, §5, §6, §7

Thrombin (TH) = molecular target: T3, Thrombin (TH) (Bos taurus, UniProt P00735); experiment: Substrate specificity test: hydrolysis by thrombin, colorimetric; assay type: biochemical, Bovine; settings: for Absorbance (O.D.), TH: 700 nm (CHA substrate, pentacyanoamineferroate), S0 = 0.4 m mole, pH 8.5, 37° C., 5 minutes, 4.0 NIH/ml enzyme
T3 construct: purchased Mochida Pharmaceutical Co., Ltd. Lot No. 65146
Method: as §1, §2, §3, §4, §5, §6, §7

[1] = molecular target: T4, Human kallikrein in urine (HUK) (Homo sapiens, UniProt P06870); experiment: Substrate specificity test: hydrolysis by human kallikrein in urine, colorimetric; assay type: biochemical; settings: for Absorbance (O.D.), HUK: 700 nm (CHA substrate, pentacyanoamineferroate), S0 = 0.4 m mole, pH 9.0, 37° C., 5 minutes, 0.1 U/ml enzyme
T4 construct: purchased The Green Cross Corporation Lot No. Y1003SM
T4 sequence (P06870 25-262): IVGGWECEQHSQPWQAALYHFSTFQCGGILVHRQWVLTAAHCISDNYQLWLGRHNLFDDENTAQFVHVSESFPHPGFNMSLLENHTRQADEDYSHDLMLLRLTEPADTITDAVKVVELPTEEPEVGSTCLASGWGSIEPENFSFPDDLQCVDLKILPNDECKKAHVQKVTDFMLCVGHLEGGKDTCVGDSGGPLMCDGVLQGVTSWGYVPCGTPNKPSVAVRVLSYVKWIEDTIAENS
Method: as §1, §2, §3, §4, §5, §6, §7

[2] = PS-2103N given as 100, S0 = 0.4 m mol

| Substance | Absorbance (O.D.), PL (Plasmin (PL)) [OD] | Relative reactivity to enzymes, PL (Plasmin (PL); [2]) | reactivity to plasmin (Plasmin (PL); relative to PS-2103N = 100) [%] | Absorbance (O.D.), UK (Urokinase (UK)) [OD] | Relative reactivity to enzymes, UK (Urokinase (UK); [2]) | reactivity to urokinase (Urokinase (UK); relative to PS-2103N = 100) [%] | Absorbance (O.D.), TH (Thrombin (TH)) [OD] | Relative reactivity to enzymes, TH (Thrombin (TH); [2]) | reactivity to thrombin (Thrombin (TH); relative to PS-2103N = 100) [%] | Absorbance (O.D.), HUK [1] [OD] | Relative reactivity to enzymes, HUK [1, 2] |
| --- | --- | --- | --- | --- | --- | --- | --- | --- | --- | --- | --- |
| H-D-Ala-Phe-Arg-CHA [PS-2103] | 0.011 | 4 | 4 | 0.0 | 0 | 0 | 0.007 | 7 | 7 | 0.599 | 242 |
| H-D-PGlu-Phe-Arg-CHA [PS-2102] | 0.016 |  |  | 0.0 |  |  | 0.005 |  |  | 0.128 |  |
| H-D-Pro-Phe-Arg-CHA [PS-2100] | 0.014 |  |  | 0.003 |  |  | 0.016 |  |  | 0.244 |  |
